The results in this text go back to US20240116985A1, “STAPLED PEPTIDES AND METHODS THEREOF” (priority 2020, published 2024).

A value given as a limit tells only on which side of the number the result lay.

As usually defined, the IC50 is the point on the concentration scale where inhibition reaches its midpoint.

For assay [1], the target named is T1, full-length beta-Catenin (Uniprot ID P35222) (Homo sapiens, UniProt P35222).
T1 construct: 10 nM full-length beta-Catenin (Uniprot ID P35222)
T1 sequence (P35222 1-781): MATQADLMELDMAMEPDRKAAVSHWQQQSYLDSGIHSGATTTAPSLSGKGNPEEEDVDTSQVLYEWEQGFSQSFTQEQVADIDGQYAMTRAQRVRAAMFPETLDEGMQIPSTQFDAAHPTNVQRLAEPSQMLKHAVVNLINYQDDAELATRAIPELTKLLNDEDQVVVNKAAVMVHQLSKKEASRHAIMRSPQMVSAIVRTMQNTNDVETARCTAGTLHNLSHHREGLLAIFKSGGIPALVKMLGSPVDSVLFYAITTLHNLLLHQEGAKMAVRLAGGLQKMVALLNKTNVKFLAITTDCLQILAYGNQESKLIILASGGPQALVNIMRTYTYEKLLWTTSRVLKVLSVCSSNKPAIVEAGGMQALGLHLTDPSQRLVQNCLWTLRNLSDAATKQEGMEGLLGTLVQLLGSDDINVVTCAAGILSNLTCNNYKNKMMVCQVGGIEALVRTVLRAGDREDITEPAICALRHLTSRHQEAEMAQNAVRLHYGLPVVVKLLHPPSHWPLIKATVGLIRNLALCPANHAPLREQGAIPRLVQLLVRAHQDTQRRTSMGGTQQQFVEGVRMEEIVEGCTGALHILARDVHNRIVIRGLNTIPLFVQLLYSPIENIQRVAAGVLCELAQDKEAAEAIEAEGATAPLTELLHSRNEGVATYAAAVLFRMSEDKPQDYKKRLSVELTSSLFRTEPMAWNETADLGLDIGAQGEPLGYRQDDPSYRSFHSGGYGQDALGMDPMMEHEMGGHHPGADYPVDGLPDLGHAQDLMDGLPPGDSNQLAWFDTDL
The experiment in a line: Fluorescence polarization IC50 (beta-catenin / 5FAM-TCF4 10-53 competition). In kind it is binding. The conditions noted are these: fluorescence polarization; read-out: beta-Catenin FP IC50. For orientation: In fluorescence polarisation assays a small probe gives low polarisation when free and higher when bound to something large.

The target in assay [2] is T2, beta-catenin/TCF4 engagement (Homo sapiens, UniProt P35222).
T2 construct: expressed in transfected cells; host or cells: HEK293
T2 sequence (P35222 1-781): T1 sequence (P35222 1-781)
The experiment in a line: Nano-BRET target engagement assay (B-cat-Halo & TCF4-Luc in HEK293 cells). In kind it is cell-based. The conditions noted are these: absolute IC50; read-out: NanoBRET Abs IC50.

Turning to `CC(=O)N1CCC[C@]12CC=CCCCC1(CCCC=CCCCOC(=O)N3CC[C@@](C(=O)N[C@@H](Cc4ccsc4)C(=O)N[C@@H](Cc4csc5ccccc45)C(=O)N[C@@H](CCC(N)=O)C(N)=O)(C3)NC(=O)[C@H](CC(C)C)NC(=O)[C@H](Cc3ccccc3)NC(=O)[C@H](C)NC(=O)[C@H](C)NC(=O)[C@H](CCN(CC(=O)O)C(=O)c3ccc(CN4CCOCC4)cc3)NC(=O)[C@H](CC(=O)O)NC1=O)NC(=O)[C@H](CC(C)(C)C)NC(=O)[C@H](CC(=O)O)NC2=O` (stereo partly drawn) [I-2248, Ac-PL3-Asp-Npg-B5-Asp-[MeMorphBz]GAbu-Ala-Ala-Phe-Leu-PyrS2-3Thi-BztA-Gln-NH2], the IC50 turned out to be 0.008 µM in assay [1] and 21.5 µM in assay [2].

Turning to `CC(=O)N1CCC[C@]12CC=CCCCC1(CCCC=CCCCOC(=O)N3CC[C@@](C(=O)N[C@@H](Cc4ccsc4)C(=O)N[C@@H](Cc4csc5ccccc45)C(=O)N[C@@H](CCC(N)=O)C(N)=O)(C3)NC(=O)[C@H](CC(C)C)NC(=O)[C@H](Cc3ccccc3)NC(=O)[C@H](C)NC(=O)[C@H](C)NC(=O)[C@H](CCN(CC(=O)O)C(=O)Cc3c(F)c(F)c(F)c(F)c3F)NC(=O)[C@H](CC(=O)O)NC1=O)NC(=O)[C@H](CC(C)(C)C)NC(=O)[C@H](CC(=O)O)NC2=O` (stereo partly drawn) [I-2251, Ac-PL3-Asp-Npg-B5-Asp-[PfPhAc]GAbu-Ala-Ala-Phe-Leu-PyrS2-3Thi-BztA-Gln-NH2], the IC50 is 0.015 µM in assay [1] and 6.4 µM in assay [2].

Regarding `CC(=O)N1CCC[C@]12CC=CCCCC1(CCCC=CCCCOC(=O)N3CC[C@@](C(=O)N[C@@H](Cc4ccsc4)C(=O)N[C@@H](Cc4csc5ccccc45)C(=O)N[C@@H](CCC(N)=O)C(N)=O)(C3)NC(=O)[C@H](CC(C)C)NC(=O)[C@H](Cc3ccccc3)NC(=O)[C@H](C)NC(=O)[C@H](C)NC(=O)[C@H](CCN(CC(=O)O)C(=O)c3c(F)c(F)c(F)c(F)c3F)NC(=O)[C@H](CC(=O)O)NC1=O)NC(=O)[C@H](CC(C)(C)C)NC(=O)[C@H](CC(=O)O)NC2=O` (stereo partly drawn) [I-2252, Ac-PL3-Asp-Npg-B5-Asp-[PfBz]GAbu-Ala-Ala-Phe-Leu-PyrS2-3Thi-BztA-Gln-NH2], the IC50 in assay [1] is 0.031 µM; in assay [2] it was 17.5 µM.

In the case of `CC(=O)N1CCC[C@]12CC=CCCCC1(CCCC=CCCCOC(=O)N3CC[C@@](C(=O)N[C@@H](Cc4ccsc4)C(=O)N[C@@H](Cc4csc5ccccc45)C(=O)N[C@@H](C)C(N)=O)(C3)NC(=O)[C@H](CC(C)C)NC(=O)[C@H](Cc3ccccc3)NC(=O)[C@H](C)NC(=O)[C@H](C)NC(=O)[C@H](Cc3cccc(C(=O)O)c3)NC(=O)[C@H](CC(=O)O)NC1=O)NC(=O)[C@H](CC(C)(C)C)NC(=O)[C@H](CC(=O)O)NC2=O` (stereo partly drawn) [I-2257, Ac-PL3-Asp-Npg-B5-Asp-3COOHF-Ala-Ala-Phe-Leu-PyrS2-3Thi-BztA-Ala-NH2], the IC50 came out at 0.015 µM in assay [1] and 2.9 µM in assay [2].

`CC(=O)N1CCC[C@]12CC=CCCCC1(CCCC=CCCCOC(=O)N3CC[C@@](C(=O)N[C@@H](Cc4ccsc4)C(=O)N[C@@H](Cc4csc5ccccc45)C(=O)N[C@@H](C)C(N)=O)(C3)NC(=O)[C@H](Cc3ccccc3)NC(=O)[C@H](Cc3ccccc3)NC(=O)[C@H](C)NC(=O)[C@H](C)NC(=O)[C@H](Cc3cccc(C(=O)O)c3)NC(=O)[C@H](CC(=O)O)NC1=O)NC(=O)[C@H](CC(C)(C)C)NC(=O)[C@H](CC(=O)O)NC2=O` (stereo partly drawn) [I-2259, Ac-PL3-Asp-Npg-B5-Asp-3COOHF-Ala-Ala-Phe-Phe-PyrS2-3Thi-BztA-Ala-NH2]: the IC50 in assay [1] is 0.03 µM; in assay [2] it was 4.3 µM.

As for `CC(=O)N1CCC[C@]12CC=CCCCC1(CCCC=CCCCOC(=O)N3CC[C@@](C(=O)N[C@@H](Cc4ccsc4)C(=O)N[C@@H](Cc4csc5ccccc45)C(=O)N[C@@H](C)C(N)=O)(C3)NC(=O)[C@H](CC(C)C)NC(=O)[C@H](Cc3cccc(F)c3)NC(=O)[C@H](C)NC(=O)[C@H](C)NC(=O)[C@H](Cc3cccc(C(=O)O)c3)NC(=O)[C@H](CC(=O)O)NC1=O)NC(=O)[C@H](CC(C)(C)C)NC(=O)[C@H](CC(=O)O)NC2=O` (stereo partly drawn) [I-2260, Ac-PL3-Asp-Npg-B5-Asp-3COOHF-Ala-Ala-3FF-Leu-PyrS2-3Thi-BztA-Ala-NH2], the IC50 in assay [1] was 0.021 µM; in assay [2], 3.1 µM.

As for `CC(=O)N1CCC[C@]12CC=CCCCC1(CCCC=CCCCOC(=O)N3CC[C@@](C(=O)N[C@@H](Cc4cccc(F)c4)C(=O)N[C@@H](Cc4csc5ccccc45)C(=O)N[C@@H](C)C(N)=O)(C3)NC(=O)[C@H](CC(C)C)NC(=O)[C@H](Cc3ccccc3)NC(=O)[C@H](C)NC(=O)[C@H](C)NC(=O)[C@H](Cc3cccc(C(=O)O)c3)NC(=O)[C@H](CC(=O)O)NC1=O)NC(=O)[C@H](CC(C)(C)C)NC(=O)[C@H](CC(=O)O)NC2=O` (stereo partly drawn) [I-2261, Ac-PL3-Asp-Npg-B5-Asp-3COOHF-Ala-Ala-Phe-Leu-PyrS2-3FF-BztA-Ala-NH2], the values for the IC50 in assay [1] and in assay [2] were 0.034 µM and 6.4 µM, respectively.

For the compound `CC(=O)N1CCC[C@]12CC=CCCCC1(CCCC=CCCCOC(=O)N3CC[C@@](C(=O)N[C@@H](Cc4ccsc4)C(=O)N[C@@H](Cc4csc5ccccc45)C(=O)N[C@@H](C)C(N)=O)(C3)NC(=O)[C@H](CC(C)C)NC(=O)[C@H](Cc3ccc(F)cc3)NC(=O)[C@H](C)NC(=O)[C@H](C)NC(=O)[C@H](Cc3cccc(C(=O)O)c3)NC(=O)[C@H](CC(=O)O)NC1=O)NC(=O)[C@H](CC(C)(C)C)NC(=O)[C@H](CC(=O)O)NC2=O` (stereo partly drawn) [I-2262, Ac-PL3-Asp-Npg-B5-Asp-3COOHF-Ala-Ala-4FF-Leu-PyrS2-3Thi-BztA-Ala-NH2], the IC50 stood at 0.018 µM in assay [1] and 3.7 µM in assay [2].

For the compound `CC(=O)N1CCC[C@]12CC=CCCCC1(CCCC=CCCCOC(=O)N3CC[C@@](C(=O)N[C@@H](Cc4ccc(F)cc4)C(=O)N[C@@H](Cc4csc5ccccc45)C(=O)N[C@@H](C)C(N)=O)(C3)NC(=O)[C@H](CC(C)C)NC(=O)[C@H](Cc3ccccc3)NC(=O)[C@H](C)NC(=O)[C@H](C)NC(=O)[C@H](Cc3cccc(C(=O)O)c3)NC(=O)[C@H](CC(=O)O)NC1=O)NC(=O)[C@H](CC(C)(C)C)NC(=O)[C@H](CC(=O)O)NC2=O` (stereo partly drawn) [I-2263, Ac-PL3-Asp-Npg-B5-Asp-3COOHF-Ala-Ala-Phe-Leu-PyrS2-4FF-BztA-Ala-NH2], the IC50 worked out at 0.047 µM in assay [1] and 4.3 µM in assay [2].

As to `CC(=O)N1CC2CC1C(=O)N[C@@H](CC(=O)O)C(=O)N[C@@H](CC(C)(C)C)C(=O)NC1(CCCCCCCCOC(=O)N3CC[C@@](C(=O)N[C@@H](Cc4ccsc4)C(=O)N[C@@H](Cc4csc5ccccc45)C(=O)N[C@@H](CCC(N)=O)C(N)=O)(C3)NC(=O)[C@H](CC(C)C)NC(=O)[C@H](Cc3ccccc3)NC(=O)[C@H](C)NC(=O)[C@H](C)NC(=O)[C@H](CN(CC(=O)O)CC(F)(F)F)NC(=O)[C@H](CC(=O)O)NC1=O)CCCCCCCC(=O)O2` (stereo partly drawn) [I-2265, Ac-HypEs5-Asp-Npg-B5-Asp-TfeGA-Ala-Ala-Phe-Leu-PyrS2-3Thi-BztA-Gln-NH2], the IC50 in assay [1] was 0.067 µM; in assay [2], > 20 µM.
